Measured values reported in patent publication US20260284240A1, “RADIOLABELED COMPOUND FOR USE IN A METHOD OF TREATING CARBONIC ANHYDRASE IX POSITIVE DISEASES” (DEBIOPHARM INTERNATIONAL S.A., priority 2023, published 2026).
Where two headings read alike, the source gives them in different places. Starred links: 1 amine or outer side, 2 acyl side, 3 side chain; linkers in the order of their positions; H or OH if unused. Positions of bridges follow the written chain, without caps; N, C: chain ends. Non-standard residues stand in square brackets, D forms with d. Residues, ends and D or L forms follow the SMILES beside them. *: point of attachment. Phe(3-NHCO(CH2)3SO2NH2) = N[C@@H](Cc1cccc(NC(=O)CCCS(N)(=O)=O)c1)C(=O)O; DOTA = O=C(O)CN1CCN(CC(=O)O)CCN(CC(=O)*)CCN(CC(=O)O)CC1; mXylylene = c1cc(C[*:1])cc(C[*:2])c1; X1 = O=C(CN1CCN([*:1])CC1)[*:2]

Experiments:
[1] = Biodistribution of In-111-labeled compounds by SPECT/CT in SK-RC-52 tumor-bearing mice, with or without gelofusine; format: in vivo, mouse; details: mouse, in vivo
Protocol: (§1) The effect on tumor uptake of prior injection of gelofusine for kidney protection was investigated in mice bearing the SK-RC-52 tumor. Biodistribution was evaluated using in vivo SPECT/CT imaging.
(§2) The study was performed in female NMRI nude mice (approximately 6 weeks of age) from Janvier Labs, France, housed up to 5 mice per cage.
(§3) The column was washed with 2 mL water, and then the final product was eluted from the column in EtOH solution (50%) • The sample was formulated in PBS to the final concentration of 150 MBq/mL and 5 nmol/mL.
(§4) HT-29 cells were cultured in McCoy's 5a Medium Modified (Sigma #M9309). For inoculation of HT-29 cells, cells were harvested, washed twice in PBS and resuspended at 5×10^7 cells/mL in PBS. Cells were kept on ice until inoculation.
(§5) Animals were anaesthetized (isoflurane, 2-4% in ambient air supplemented with 100% O2) prior to tumor inoculation. The tumor cells (100 μL suspension of either SK-RC-52 cells (2×10^6 cells/animal) or HT-29 cells (5×10^6 cells/animal)) were subcutaneously inoculated in the right flank using a 1-mL syringe equipped with a 27G needle. Tumor growth and animal weight were measured twice per week. Tumor size was measured by caliper and the volume was estimated using the following formula: 0.52×(length×width^2). When tumor sizes reached 150-250 mm^3, animals were randomized into groups (n=3) of similar average tumor volume and body weight.
(§6) CT was performed with helical scan, 300 ms exposure, reconstruction resolution of 250 μm. SPECT was performed with multi-pinhole scan and a 30 s frame time. For the quantification of the radioactivity uptake, regions of interests (ROIs) were drawn over the tumor, kidney, liver, and heart (estimate of blood) identified on the images. Uptake was expressed as percent of injected dose per gram tissue (% ID/g).

SK-RC-52 tumor = experiment: as above; format: in vivo, mouse
Protocol: as §1, §2, §3, §4, §5, §6

[2] = Toxicokinetics in the dose range finding study in dogs (LC-HRMS plasma); format: in vivo, dog; details: for CL / Vss / t1/2 / Dose-normalized AUClast / AUClast / concentration at […]: dog plasma, i.v. bolus; for CL / Vss / t1/2 / AUClast / concentration at […]: mean n = 2; for Dose-normalized AUClast: AUClast divided by dose in μg/kg; for concentration at […]: iv, read-out: C15 min
Protocol: The following parameters and endpoints were evaluated: mortality, clinical observations, body weights, food consumption, local reactions, clinical pathology parameters (hematology, coagulation, and clinical chemistry), organ weights, and macroscopic examinations. Both animals were sampled for toxicokinetics (TK) on each dosing occasion (i.e., on day 1, day 5, day 9 and day 13) at: pre-dose, 15 min, 30 min, 1 h, 6 h and 24 h. Blood samples were collected in K2EDTA tubes. Plasma was prepared by centrifugation (2500 g for 10 minutes, +4° C.) within 1 hour after collection, and then frozen within 1 hour after centrifugation and stored at −80° C. […] Chromatographic separation was achieved using a Waters Acquity UPLC system with a Waters Acquity HSS T3 C18 2.1×50 mm, 1.8 μm column. Chromatography was conducted at 50° C. at a flow rate of 0.7 mL/min using a mobile phase consisting of A: acetonitrile, and B: 1% formic acid in water, according to the following linear gradient: 0 to 0.1 min: 90% B; 0.1 to 4.1 min: from 90% B to 74% B; 4.1 to 4.2 min: from 74% B to 5% B; 4.2 to 4.6 min: 5% B; 4.6 to 4.7 min: from 5% B to 90% B; 4.7-5.1 min; 90% B. Detection was performed using a Sciex AP16600 TOF mass spectrometer. Toxicokinetic parameters were estimated from concentration-time data using Phoenix pharmacokinetic software (version 6.4, Certara L.P.). A non-compartmental approach consistent with the bolus intravenous injection was used for parameter estimation. […] Neither in-life parameters nor clinical pathology parameters were affected. In addition, there were no related macroscopic observations noted at necropsy.

[3] = Cardiovascular and respiratory safety pharmacology (jacketed external telemetry) in dogs; format: in vivo; details: dog, any dose or timepoint
Text: The test item treatment led to unaffected body weights, weight gains, and food intake. Likewise, no treatment-related abnormalities were reported during ophthalmic examinations, urinalysis, blood biochemistry, coagulation, and hematology investigations. There were no related organ weight changes and macroscopic and microscopic observations at early and late necropsies. Jacketed external telemetry was used to evaluate the potential cardiovascular and respiratory effects in the Subset B. Cardiorespiratory telemetry recordings were performed during the pre-test, Day 1 and 14. […] Arterial blood pressure parameters (systolic and diastolic blood pressure and mean arterial pressure) were measured continuously during consecutive 30-minute periods at pre-dose and for up to 6 h after dosing and over consecutive 60-minute periods up to 24 h after dosing. The respiratory rate was monitored on the pre-test, Day 1 and Day 14 at 0.5, 1, 2, 3, 4, 6, 8, 12, 16, 20, and 24 h. […] The potential effects on central nervous system parameters were evaluated under restrained and non-restrained conditions using a FOB in Subset A. Neurologic, autonomic, and behavioral investigations were performed in the pre-test, pre-dose, and 1 hour after dosing on Day 1.

## CC(C)C[C@@H]1NC(=O)[C@H](Cc2cccc(NC(=O)CCCS(N)(=O)=O)c2)NC(=O)[C@H](CC(=O)O)NC(=O)[C@H]2CCCN2C(=O)[C@H](CCC(=O)O)NC(=O)[C@@H](NC(=O)[C@H](CCC(N)=O)NC(=O)CN2CCN(C(=O)CN3CCN(CC(=O)O)CCN(CC(=O)O)CCN(CC(=O)O)CC3)CC2)CSCc2cccc(c2)CSC[C@@H](C(N)=O)NC(=O)[C@H](CO)NC(=O)[C@H](Cc2c[nH]c3ccccc23)NC(=O)[C@H]([C@@H](C)O)NC1=O [DPI-4452, DOTA-PPAc-Gln-[Cys(3MeBn)-Glu-pro-Asp-Af3(Cpsu)-Leu-Thr-Trp-Ser-Cys]-NH2] ({DOTA}-[X1]QCE[dP]D[Phe(3-NHCO(CH2)3SO2NH2)]LTWSC-NH2; linker 3-12 via mXylylene)
[1]; SK-RC-52, Mean ± SEM, N=3, read-out: Peak Tumor Uptake
  tissue uptake: 9.42 ± 1.53 %ID/g
[1]; SK-RC-52 mice, read-out: Peak Kidney uptake
  tissue uptake: 3.43 ± 0.24 %ID/g
SK-RC-52 tumor; SK-RC-52
  Time to peak uptake in tumor: 1 h
SK-RC-52 tumor; SK-RC-52, Mean ± SEM
  % remaining tumor uptake at 24 h p.i.: 73.3 ± 0.8%
SK-RC-52 tumor; SK-RC-52 mice
  Blood uptake at 4 h p.i.: 0.05 ± 0.01 % ID/g
  Kidney uptake at 24 h p.i.: 0.95 ± 0.05 % ID/g
  Liver uptake at 4 h p.i.: 0.18 ± 0.04 % ID/g
[2]; Day 1, […], 1440 min
  CL: 11.7 mL/min/kg
  Vss: 0.22 L/kg
  t1/2: 15 min
[2]; Day 1, […]
  Dose-normalized AUClast: 1.36
[2]; Day 5, 0.08 mg/kg, 7200 min
  AUClast: 117 ng·h/mL
[2]; Day 5, 0.08 mg/kg
  Dose-normalized AUClast: 1.46
  concentration at […]: 156 ng/mL
[2]; Day 9, 0.4 mg/kg, 12960 min
  AUClast: 926 ng·h/mL
  CL: 6.83 mL/min/kg
  Vss: 0.24 L/kg
  t1/2: 29.4 min
[2]; Day 9, 0.4 mg/kg
  Dose-normalized AUClast: 2.31
  concentration at […]: 880 ng/mL
[2]; Day 13, 0.8 mg/kg, 18720 min
  AUClast: 3530 ng·h/mL
  CL: 3.52 mL/min/kg
  Vss: 0.32 L/kg
  t1/2: 52.8 min
[2]; Day 13, 0.8 mg/kg
  Dose-normalized AUClast: 4.42
  concentration at […]: 2000 ng/mL
[2]; dog, 25-800 μg/kg i.v.
  Dose proportionality of exposure: exposure increased more than dose-proportionally
[2]; Day 1, 0.025 mg/kg
  concentration at […]: 46.8 ng/mL
[3]
  Cardiovascular or respiratory parameters (heart rate, arterial blood pressure, ECG, respiratory rate): no related effect on cardiovascular or respiratory parameters
